Measurements: article PMC4545913, “Dual EZH2 and EHMT2 histone methyltransferase inhibition increases biological efficacy in breast cancer cells” (Clinical Epigenetics, 2015)

Assays:
[1] = test system: EZH2; experiment: qRT-PCR of EZH2 mRNA in MDA-MB-231 cells; type: cell-based; details: Homo sapiens, 48 h, normalised against GAPDH, read-out: EZH2 RNA level, fold increase compared to the mock treated sample; for fold induction at 10 µM: MDA-MB-231, single dose 10 μM
Protocol: (§1) Following compound treatment of MDA-MB-231 for 48 h (in 6-well plates), media was removed and 1.5 ml of TRIzol (Invitrogen) was added directly to lyse cells and RNA was isolated according to the manufacturer’s instructions. Reverse transcription was done using the SuperScript III First-Strand Synthesis System (Invitrogen) according to the manufacturer’s instructions. Each measurement was done in triplicate, and the List of Primers can be found in Additional file 2: Table S1. For normalisation, we have used GAPDH and RNA pol II. Experiments were also done with the ‘Fast Sybr Green Cell-to-CT™-Kit’ according to the manufacturer’s instructions (Applied Biosystem). Fifteen thousand cells per 96 well were plated, and after 24 h, treated with compounds at various concentrations.
(§2) For qRT-PCR measurements the 2x iQ SYBR Green Supermix (Bio-Rad), 200nM Primers and 0.4μl of cDNA /per 20μl reaction was used. The measurement was done in low-white 96-well plates (Bio-Rad) on a CFX96 Real-time System/C1000 Thermal Cycler (Bio-Rad) with the following protocol: 95°C for 3’; 95°C for 10’’, 56°C for 10’’, 72°C for 30’’ 42 cycles followed by a melting curve from 72°C to 95°C.

[2] = test system: JMJD3; experiment: qRT-PCR of JMJD3 mRNA in MDA-MB-231 cells; type: cell-based; details: for fold induction at 10 µM: MDA-MB-231, single dose 10 μM; for Change in JMJD3 mRNA level: MDA-MB-231, 48 h, single agents 1–15 μM, combination UNC0638 at 7.5 μM with increasing doses of GSK343
Protocol: as §1, §2

[3] = test system: KRT17; experiment: qRT-PCR of KRT17 mRNA in MDA-MB-231 cells; type: cell-based; details: for fold induction at 10 µM: MDA-MB-231, single dose 10 μM; for Change in KRT17 mRNA level: MDA-MB-231, 48 h, single agents 1–15 μM, combination UNC0638 at 7.5 μM with increasing doses of GSK343
Protocol: as §1, §2

[4] = test system: MDA-MB-231 cells; experiment: Clonogenic growth assay; type: cell-based; details: Homo sapiens; MDA-MB-231, 48 h treatment then 12 days in fresh media
Protocol: (§3) For clonogenic assays, cells were treated with compound for 48 h, media were removed and replaced with fresh media for a further 12 days to measure colony formation. For cell viability assays, lymphoma cells were plated at 20,000 cells in 200 μl per well in U-bottom 96 well plates in RPMI medium +20 % FCS. Cells were re-suspended 48 h later, diluted 10-fold in PBS + propidium iodide (PI) and the concentration of PI negative cells was counted using an Attune flow cytometer with autosampler. Breast cancer cells were seeded at a density of 10,000 cells/well in a sterile 96 clear-well plate with 150 μl of DMEM (+10 % FCS and 2 mM L-Glutamine). Each compound treatment was performed in triplicate for 72 h at concentrations of 100 nM and 1, 5, 10 and 50 μM in 100 μl of full-medium. After 72 h, 20 μl of MTT solution (3 mg of MTT Formazan, Sigma/1 ml PBS) was added to the medium and incubated for 4 h at 37 °C in a CO2 incubator. The MTT-product was solubilised with 100 μl DMSO, and for 1 h, incubated in the dark at room temperature. The optical density was read at 570 nm with PHERAstar.

[5] = test system: FBXO32; experiment: qRT-PCR of FBXO32 mRNA in MDA-MB-231 cells; type: cell-based; details: for fold induction at 10 µM: MDA-MB-231, single dose 10 μM; for Change in FBXO32 mRNA level: MDA-MB-231, 48 h, single agents 1–15 μM, combination UNC0638 at 7.5 μM with increasing doses of GSK343
Protocol: as §1, §2

[6] = test system: MDA-MB-231 cells; experiment: MTT cell viability assay; type: cell-based; details: for IC50: Homo sapiens
Protocol: Fig. 1 MTT and mRNA levels in MDA-MB-231 cells after pharmacological inhibition and siRNA knockdown of EZH2 and EHMT2(G9a), individually and in combination. a Expression levels of KRT17, FBX032, JMJD3, EZH2, SPINK1 and EHMT2 were measured by qRT-PCR in the MDA-MB-231 cell line 48 h after transfection with siRNAs targeting EZH2 and EHMT2, both individually and in combination. All measurements were normalised to the fold-change (relative to GAPDH) in the mock transfection control. Error bars represent the mean ± SD of experiment performed in technical triplicate. b Expression levels of KRT17, FBX032, JMJD3 and SPINK1 were measured by qRT-PCR in the MDA-MB-231 cell line treated for 48 h with GSK343, UNC0638, and UNC0638 (at 7.5 μM) with increasing doses of GSK343. Each group has been compared to the untreated sample following normalisation to GAPDH. Error bars represent the mean ± SD of experiment performed in technical triplicate. c MTT assay for cell viability of MDA-MB-231 cells after treatment. MDA-MB-231 cells were seeded in 96 well plates. After 24 h, increasing doses of GSK343, UNC0638 or combination treatments (1, 2.5, 5, 7.5, 10 and 15 μM) were added to cells. Control was media with 0.5 % DMSO. Cell viability was measured by MTT assay after a 48-h treatment and a 24-h proliferation period. Error bars represent the mean ± SEM of five independent repeats
as §3

[7] = test system: SC1; experiment: Lymphoma cell growth, cell counting following propidium iodide staining; type: cell-based; details: Homo sapiens, SC-1, EZH2 W.T., 48 h, PI negative cell count
Protocol: as §3

[8] = test system: SUDLH8; experiment: as above; type: cell-based; details: EZH2 W.T. (amplified), 48 h, PI negative cell count
Protocol: as §3

[9] = test system: DOHH2; experiment: as above; type: cell-based; details: Homo sapiens, DOHH-2, EZH2 W.T., 48 h, PI negative cell count
Protocol: as §3

[10] = test system: WSU-FSCLL; experiment: as above; type: cell-based; details: EZH2 W.T., 48 h, PI negative cell count
Protocol: as §3

[11] = test system: DB; experiment: as above; type: cell-based; details: Homo sapiens, EZH2 Mutant Y646N, 48 h, PI negative cell count
Protocol: as §3

[12] = test system: WILL1; experiment: as above; type: cell-based; details: WILL-1, EZH2 W.T., 48 h, PI negative cell count
Protocol: as §3

[13] = test system: H3K27me3 and H3K9me3; experiment: Western analysis of global histone marks in MDA-MB-231 cells; type: cell-based; details: range of doses
Protocol: MDA-MB-231 cells seeded in 6 well plates at a cell density of 3 x 10^5 were treated with HKMTI-1-005 (1–7.5uM) for 48 h. Following lysis in Triton Extraction Buffer (TEB, PBS containing 0.5 % Triton ×100 (v/v), 1/1000 protease inhibitor), nuclei were re-suspended in 0.2 N HCL at a density of 4 x 10^7 nuclei per millilitre and incubated overnight at 4 °C to acid-extract the histones, before being centrifuged at 6500g for 10 min at 4 °C. Protein concentration was determined using the Bradford assay. H3K27me3, H3K9me3, H3K9me2, H3K9me and total H3 protein expression levels in the histone extract samples were determined using Western blot analysis using H3K27me3 (1:1000; Abcam), H3K9me3 (1:1000; Abcam), H3K9me (1:1000) and H3 (1:2000; Abcam) antibodies. After washing, the membrane was incubated with a horseradish peroxidase-labelled secondary antibody (1 h, room temperature). The membrane was incubated for 1 min with 5 mL of Pierce ECL Western blotting substrate (Thermo Scientific). Images were captured using Konica Minolta SRX101A Tabletop X-Ray film processor.

[14] = test system: SPINK1; experiment: qRT-PCR of SPINK1 mRNA in MDA-MB-231 cells; type: cell-based; details: for Change in SPINK1 mRNA level: MDA-MB-231, 48 h, single agents 1–15 μM, combination UNC0638 at 7.5 μM with increasing doses of GSK343; for SPINK1 expression upon treatment: MDA-MB-231, multiple doses and time points
Protocol: as §1, §2

[15] = molecular target: trimeric PRC2 complex (EZH2:EED:SUZ12) (Homo sapiens, UniProt O75530+Q15022+Q15910); experiment: PRC2 enzymatic assay (SPA-type), biotinylated-H3 (21–44) peptide substrate; type: biochemical; details: EZH2:EED:SUZ12, biotinylated-H3 (21–44) peptide substrate
Source text: A trimeric PRC2 complex (EZH2:EED:SUZ12) was employed in this assay, along with a biotinylated-H3 (21–44) peptide substrate. […] Since the peptide substrates used in these assays are poor models for the complex and dynamic structure of the chromatin substrate in cells and since the only minimal number of PRC2 proteins (EZH2:EED:SUZ12) required for enzymatically active EZH2 were employed in the PRC2 assay, care should be taken in the over interpretation of this in vitro inhibitory data.

[16] = test system: EZH2; details: cited from earlier work
[17] = Homo sapiens, 48 h, normalised against GAPDH, read-out: JMJD3 RNA level, fold increase compared to the mock treated sample
[18] = Homo sapiens, 48 h, normalised against GAPDH, read-out: KRT17 RNA level, fold increase compared to the mock treated sample
[19] = Homo sapiens, 48 h, normalised against GAPDH, read-out: FBXO32 RNA level, fold increase compared to the mock treated sample
[20] = MDA-MB-231 (Table 2), read-out: Cell viability (MTT) IC50

Chain of trimeric PRC2 complex (EZH2:EED:SUZ12) (Q15910 whole entry): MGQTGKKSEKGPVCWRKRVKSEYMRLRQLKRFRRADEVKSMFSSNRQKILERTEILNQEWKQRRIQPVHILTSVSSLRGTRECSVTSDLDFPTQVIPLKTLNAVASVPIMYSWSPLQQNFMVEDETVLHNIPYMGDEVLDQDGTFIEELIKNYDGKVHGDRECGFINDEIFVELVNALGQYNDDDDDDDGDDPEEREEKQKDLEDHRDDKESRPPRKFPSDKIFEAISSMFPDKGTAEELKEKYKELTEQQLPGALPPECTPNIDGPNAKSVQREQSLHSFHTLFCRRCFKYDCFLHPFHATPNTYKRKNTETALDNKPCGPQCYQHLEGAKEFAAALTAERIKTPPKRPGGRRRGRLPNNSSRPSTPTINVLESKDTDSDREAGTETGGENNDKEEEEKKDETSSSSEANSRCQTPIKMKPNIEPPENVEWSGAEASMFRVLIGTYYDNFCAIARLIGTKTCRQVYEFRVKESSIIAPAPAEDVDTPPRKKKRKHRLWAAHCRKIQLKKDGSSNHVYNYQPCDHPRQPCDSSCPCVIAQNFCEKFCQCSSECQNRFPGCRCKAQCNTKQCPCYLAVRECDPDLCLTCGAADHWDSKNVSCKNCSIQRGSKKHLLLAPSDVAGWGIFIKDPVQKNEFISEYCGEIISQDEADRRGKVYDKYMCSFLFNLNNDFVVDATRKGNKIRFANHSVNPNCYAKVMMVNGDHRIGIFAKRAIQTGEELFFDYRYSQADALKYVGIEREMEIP
Chain of trimeric PRC2 complex (EZH2:EED:SUZ12) (O75530 whole entry partner): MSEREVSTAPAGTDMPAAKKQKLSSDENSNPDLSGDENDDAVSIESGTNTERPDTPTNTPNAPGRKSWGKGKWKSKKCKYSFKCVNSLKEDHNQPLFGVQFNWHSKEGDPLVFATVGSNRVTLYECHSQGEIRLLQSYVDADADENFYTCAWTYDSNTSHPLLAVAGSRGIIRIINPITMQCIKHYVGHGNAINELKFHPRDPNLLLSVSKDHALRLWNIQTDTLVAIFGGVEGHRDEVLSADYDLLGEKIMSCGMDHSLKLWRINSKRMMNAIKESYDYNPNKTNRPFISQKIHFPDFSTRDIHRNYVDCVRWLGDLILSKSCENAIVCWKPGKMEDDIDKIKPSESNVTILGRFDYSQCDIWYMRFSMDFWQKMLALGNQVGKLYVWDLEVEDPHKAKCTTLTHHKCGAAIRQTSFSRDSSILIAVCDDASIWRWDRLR
Chain of trimeric PRC2 complex (EZH2:EED:SUZ12) (Q15022 whole entry partner): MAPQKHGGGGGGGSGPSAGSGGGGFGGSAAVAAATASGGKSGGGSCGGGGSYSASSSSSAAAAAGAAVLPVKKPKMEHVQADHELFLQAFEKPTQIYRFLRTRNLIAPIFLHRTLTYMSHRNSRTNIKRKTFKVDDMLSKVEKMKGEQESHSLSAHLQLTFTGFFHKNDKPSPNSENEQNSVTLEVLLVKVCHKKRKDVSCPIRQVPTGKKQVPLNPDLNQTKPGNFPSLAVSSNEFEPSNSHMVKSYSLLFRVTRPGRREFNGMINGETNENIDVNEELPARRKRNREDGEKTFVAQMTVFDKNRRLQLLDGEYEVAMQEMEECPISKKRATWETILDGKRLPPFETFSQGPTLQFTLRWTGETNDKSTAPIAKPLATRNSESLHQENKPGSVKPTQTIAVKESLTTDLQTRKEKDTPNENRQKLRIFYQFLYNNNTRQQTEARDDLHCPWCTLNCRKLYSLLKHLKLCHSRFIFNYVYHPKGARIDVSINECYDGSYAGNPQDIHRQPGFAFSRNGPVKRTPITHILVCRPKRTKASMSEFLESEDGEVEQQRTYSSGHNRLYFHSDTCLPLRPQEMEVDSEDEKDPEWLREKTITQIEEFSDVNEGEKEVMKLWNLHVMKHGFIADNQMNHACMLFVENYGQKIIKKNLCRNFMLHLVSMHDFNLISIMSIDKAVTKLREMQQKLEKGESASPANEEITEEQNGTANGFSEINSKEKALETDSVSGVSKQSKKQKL

COc1cc2nc(N3CCCN(C)CC3)nc(NC3CCN(Cc4ccccc4)CC3)c2cc1OC [BIX01294, reference compound]
fold induction at 10 µM [1]: 0.87 | fold induction at 10 µM [2, 17]: 2.7 | fold induction at 10 µM [3, 18]: 1.06 | IC50 [4]: 1.4 µM | fold induction at 10 µM [5, 19]: 3.34 | IC50 [6, 20]: 9.6 µM

CCCc1cc(C)[nH]c(=O)c1CNC(=O)c1cc(-c2ccnc(N3CCN(C)CC3)c2)cc2c1cnn2C(C)C [GSK343, reference compound]
fold induction at 10 µM [1]: 1 | fold induction at 10 µM [2, 17]: 1 | Change in JMJD3 mRNA level [2]: little change | fold induction at 10 µM [3, 18]: 0.9 | Change in KRT17 mRNA level [3]: little change | IC50 [4]: > 50 µM | fold induction at 10 µM [5, 19]: 1.2 | Change in FBXO32 mRNA level [5]: little change | IC50 [7]: 12.1 µM | IC50 [8]: 5.11 µM | IC50 [9]: 6.15 µM | IC50 [10]: 2.87 µM | IC50 [11]: < 1 µM | IC50 [12]: 17.9 µM | Global levels of H3K27me3 and H3K9me3 (Western) [13]: minor decrease | IC50 [6, 20]: > 15 µM | Effect on cell viability ([6]; MDA-MB-231, MTT, up to 15 μM, 48-h treatment and 24-h proliferation period): no significant reduction in cell viability | Change in SPINK1 mRNA level [14]: little change

COc1cc2nc(NCCCN(C)C)nc(NC3CCN(Cc4ccccc4)CC3)c2cc1OC [HKMTI-1-002]
fold induction at 10 µM [1]: 0.86 | fold induction at 10 µM [2, 17]: 1.57 | fold induction at 10 µM [3, 18]: 0.66 | fold induction at 10 µM [5, 19]: 1.12

COc1cc2nc(N3CCN(c4ccccn4)CC3)nc(NC3CCN(Cc4ccccc4)CC3)c2cc1OC [HKMTI-1-011]
IC50 [15]: 12 µM | SPINK1 expression upon treatment [14]: increased

COc1cc2nc(N3CCCC(CO)C3)nc(NC3CCN(C)CC3)c2cc1OC (stereo not drawn) [HKMTI-1-012]
fold induction at 10 µM [1]: 1.38 | fold induction at 10 µM [2, 17]: 0.9 | fold induction at 10 µM [3, 18]: 1.32 | fold induction at 10 µM [5, 19]: 1.06

COc1cc2nc(N3CCCN(C)CC3)nc(NCc3ccccn3)c2cc1OC [HKMTI-1-013]
fold induction at 10 µM [1]: 0.13 | fold induction at 10 µM [2, 17]: 0.87 | fold induction at 10 µM [3, 18]: 0.78 | fold induction at 10 µM [5, 19]: 0.93

COc1cc2nc(N3CCCCC3)nc(NC3CCN(Cc4ccccc4)CC3)c2cc1OC [HKMTI-1-022]
IC50 [15]: 16 µM | SPINK1 expression upon treatment [14]: increased

COc1cc2c(NC3CCN(C(C)C)CC3)nc(C3CCCCC3)nc2cc1OCCCN1CCCC1 [UNC0638, reference compound]
fold induction at 7.5 µM ([1]; MDA-MB-231, single dose 7.5 μM): 0.4 | fold induction at 7.5 µM ([2]; Homo sapiens, 48 h, MDA-MB-231, single dose 7.5 μM, normalised against GAPDH, read-out: JMJD3 RNA level, fold increase compared to the mock treated sample): 3.4 | Change in JMJD3 mRNA level [2]: dose-dependent upregulation | fold induction at 7.5 µM ([3]; Homo sapiens, 48 h, MDA-MB-231, single dose 7.5 μM, normalised against GAPDH, read-out: KRT17 RNA level, fold increase compared to the mock treated sample): 1.1 | Change in KRT17 mRNA level [3]: not significantly altered | IC50 [4]: 1.1 µM | fold induction at 7.5 µM ([5]; Homo sapiens, 48 h, MDA-MB-231, single dose 7.5 μM, normalised against GAPDH, read-out: FBXO32 RNA level, fold increase compared to the mock treated sample): 5.5 | Change in FBXO32 mRNA level [5]: dose-dependent upregulation | Global levels of H3K27me3 and H3K9me3 (Western) [13]: minor decrease | IC50 [6, 20]: 8.2 µM | IC50 ([6]; MDA-MB-231, MTT, 48-h treatment and 24-h proliferation period (Fig. 1c), read-out: Cell viability IC50 (calculated)): 9 µM | Change in SPINK1 mRNA level [14]: not significantly altered | EZH2 inhibition in biochemical assays [16]: not to significantly inhibit EZH2

COc1cc2c(NC3CCN(C(C)C)CC3)nc(N3CCC(F)(F)CC3)nc2cc1OCCCN1CCCC1 [UNC0642]
EZH2 inhibition in biochemical assays [16]: not to significantly inhibit EZH2
